Converted amounts (≈) assume the structure as drawn.
Experiments:
[1] = test system: Haemophilus influenzae (Isolate ID ATCC 49247); experiment: Antibacterial activity, MIC, H. influenzae; format: cell-based; conditions: Haemophilus influenzae, ATCC49247; Gram negative strain; broth microdilution or agar dilution
Procedure: (§1) Bacterial Assay: Determination of Antibacterial Activity
(§2) Compounds of the invention were tested for antimicrobial activity by susceptibility testing in liquid or on solid media. MICs for compounds against each strain were determined by the broth microdilution or agar dilution method according to the guidelines of the Clinical Laboratories and Standards Institute, formerly the National Committee for Clinical Laboratory Standards (Clinical Laboratories and Standards Institute. Methods for Dilution Antimicrobial Susceptibility Tests for Bacteria That Grow Aerobically; Approved Standard—Seventh Edition. Document M7-A7. CLSI, Wayne, Pa., 2006; Clinical Laboratories and Standards Institute. The gram positive bacterial strains tested include S. aureus (Staphylococcus aureus (Isolate ID ATCC 29213)), E. faecalis (Enterococcus faecalis (Isolate ID ATCC 29212)) and S. pyogenes (Streptococcus pyogenes (Isolate ID ATCC 51339)). The gram negative bacterial strains tested include H. influenzae (Haemophilus influenzae (Isolate ID ATCC 49247))

[2] = test system: Staphylococcus aureus (Isolate ID ATCC 29213); experiment: Antibacterial activity, MIC, S. aureus; format: cell-based; conditions: Staphylococcus aureus, ATCC29213, Gram positive strain; broth microdilution or agar dilution
Procedure: as §1, §2

[3] = physchem; conditions: for solubility at 24 h: kinetic from dmso stock
Procedure: Turbimetric Assay: Determination of Solubility
The solubility of the compounds was measured using a turbidimetric method. A series of doubling dilutions of compounds were prepared in neat dimethyl sulfoxide (DMSO). 5 μl samples were diluted twenty-fold into 95 μl volumes of 100 mM citrate buffer (pH 4), phosphate buffered saline (PBS, pH 7.4) or carbonate-bicarbonate buffer (pH 9) in microtitre assay plates and allowed to reach equilibrium at room temperature for 24 hours. The absorbance within each well of the plate was read spectrophotometrically at a wavelength of 620 nm. A precipitate forms when the maximum aqueous solubility level is reached. The value quoted is the highest concentration where the compound was in solution i.e. where no measurable precipitate was present. […] ND=not determined

[4] = test system: Streptococcus pyogenes (Isolate ID ATCC 51339); experiment: Antibacterial activity, MIC, S. pyogenes; format: cell-based; conditions: Streptococcus pyogenes, ATCC51339, Gram positive strain; broth microdilution or agar dilution
Procedure: as §1, §2

[5] = pH 7.4, aqueous buffer, Solubility (pH 7.4)
[6] = pH 7.4, aqueous buffer, Solubility Range
[7] = pH 9, aqueous buffer, Max Solubility
[8] = pH 9, aqueous buffer, Solubility Range (maximum solubility)
[9] = pH 7.4, aqueous buffer, Max Solubility
[10] = pH 7.4, aqueous buffer, Solubility Range (maximum solubility)

Compound	MIC [1]	MIC [2]	solubility at 24 h [3, 5]	solubility at 24 h [3, 6]	solubility at 24 h [3, 7]	solubility at 24 h [3, 8]	MIC [4]	solubility at 24 h [3, 9]	solubility at 24 h [3, 10]	Solubility (pH 7.4) ([3]; 24 h, pH 7.4)	solubility at 24 h ([3]; pH 4, aqueous buffer, Max Solubility)	solubility at 24 h ([3]; pH 4, aqueous buffer, Solubility Range (maximum solubility))
CCNC(=O)Nc1nc2cc(-c3cnc(N4CCC(C)(C(=O)O)CC4)nc3)cc(-c3ccc(CN4CCOCC4)cn3)c2s1 [Compound 205]	1 to 16 µg/mL (≈ 1.62 to 25.9 µM)	0.25 to 1 µg/mL (≈ 0.405 to 1.62 µM)	400 µg/mL (≈ 649 µM)	400 to 800 µg/mL (≈ 649 to 1300 µM)	≥ 800 µg/mL	> 800 µg/mL	0.25 to 1 µg/mL (≈ 0.405 to 1.62 µM)					
CCNC(=O)Nc1nc2cc(-c3cnc(N4CCC(CC)(C(=O)O)C4)nc3)cc(-c3ccccn3)c2s1 (stereo not shown) [Compound 206]	1 to 16 µg/mL (≈ 1.93 to 30.9 µM)	0.25 to 1 µg/mL (≈ 0.483 to 1.93 µM)	≥ 800 µg/mL	> 800 µg/mL			≤ 0.25 µg/mL	≥ 800 µg/mL	> 800 µg/mL			
CCNC(=O)Nc1nc2cc(-c3cnc(N4CCC(CC)(C(=O)O)CC4)nc3)cc(C(=O)CC)c2s1 [Compound 207, 4-Ethyl-1-(5-(2-(3-ethylureido)-7-propionylbenzo[d]thiazol-5-yl)pyrimidin-2-yl)piperidine-4-carboxylic acid]	1 to 16 µg/mL (≈ 1.96 to 31.3 µM)	0.25 to 1 µg/mL (≈ 0.49 to 1.96 µM)	100 µg/mL (≈ 196 µM)	12.5 to 400 µg/mL (≈ 24.5 to 783 µM)	400 µg/mL (≈ 783 µM)	400 to 800 µg/mL (≈ 783 to 1570 µM)	0.25 to 1 µg/mL (≈ 0.49 to 1.96 µM)					
CCNC(=O)Nc1nc2cc(-c3cnc(N4CCC(C)(C(=O)O)CC4)nc3)c(OC)c(Br)c2s1 [Compound 208, 1-[5-[7-bromo-2-(ethylcarbamoylamino)-6-methoxy-1,3-benzothiazol-5-yl]pyrimidin-2-yl]-4-methyl-piperidine-4-carboxylic acid]	1 to 16 µg/mL (≈ 1.82 to 29.1 µM)	0.25 to 1 µg/mL (≈ 0.455 to 1.82 µM)	100 µg/mL (≈ 182 µM)	12.5 to 400 µg/mL (≈ 22.7 to 728 µM)	200 µg/mL (≈ 364 µM)	12.5 to 400 µg/mL (≈ 22.7 to 728 µM)	1 to 16 µg/mL (≈ 1.82 to 29.1 µM)					
CCNC(=O)Nc1nc2cc(-c3csc(N4CCC(CC)(C(=O)O)CC4)n3)cc(-c3ccccn3)c2s1 [Compound 209, 4-Ethyl-1-[4-[2-(ethylcarbamoylamino)-7-(2-pyridyl)-1,3-benzothiazol-5-yl]thiazol-2-yl]piperidine-4-carboxylic acid]	1 to 16 µg/mL (≈ 1.86 to 29.8 µM)	0.25 to 1 µg/mL (≈ 0.466 to 1.86 µM)	200 µg/mL (≈ 373 µM)	12.5 to 400 µg/mL (≈ 23.3 to 745 µM)	400 µg/mL (≈ 745 µM)	400 to 800 µg/mL (≈ 745 to 1490 µM)	0.25 to 1 µg/mL (≈ 0.466 to 1.86 µM)					
CCNC(=O)Nc1nc2cc(-c3cnc(N4CCC(CC)(C(=O)O)CC4)nc3)nc(-c3ccccn3)c2s1 [Compound 210]	1 to 16 µg/mL (≈ 1.88 to 30 µM)	0.25 to 1 µg/mL (≈ 0.469 to 1.88 µM)	200 µg/mL (≈ 375 µM)	12.5 to 400 µg/mL (≈ 23.5 to 751 µM)			≤ 0.25 µg/mL	200 µg/mL (≈ 375 µM)	12.5 to 400 µg/mL (≈ 23.5 to 751 µM)			
CCNC(=O)Nc1nc2cc(-c3cnc(N4CCC(CC)(C(=O)O)CC4)nc3)cc(/C(CC)=N\OC)c2s1 [Compound 211, (Z)-4-Ethyl-1-(5-(2-(3-ethylureido)-7-(1-(methoxyimino)propyl)benzo[d]thiazol-5-yl)pyrimidin-2-yl)piperidine-4-carboxylic acid]	1 to 16 µg/mL (≈ 1.85 to 29.6 µM)	0.25 to 1 µg/mL (≈ 0.463 to 1.85 µM)					0.25 to 1 µg/mL (≈ 0.463 to 1.85 µM)	≥ 800 µg/mL	> 800 µg/mL	≧800 μg/mL		
CCNC(=O)Nc1nc2cc(-c3cnc(N4CCC(C)(C(=O)O)CC4)nc3)cc(-c3noc(C)n3)c2s1 [Compound 213, 1-[5-[2-(Ethylcarbamoylamino)-7-(5-methyl-1,2,4-oxadiazol-3-yl)-1,3-benzothiazol-5-yl]pyrimidin-2-yl]-4-methyl-piperidine-4-carboxylic acid]	0.25 to 1 µg/mL (≈ 0.478 to 1.91 µM)	0.25 to 1 µg/mL (≈ 0.478 to 1.91 µM)	400 µg/mL (≈ 765 µM)	400 to 800 µg/mL (≈ 765 to 1530 µM)	≥ 800 µg/mL	> 800 µg/mL	0.25 to 1 µg/mL (≈ 0.478 to 1.91 µM)					
CCNC(=O)Nc1nc2cc(-c3cnc(N4CCC(C)(C(=O)O)CC4)nc3C)cc(-c3ccccn3)c2s1 [Compound 214]	1 to 16 µg/mL (≈ 1.88 to 30.1 µM)	0.25 to 1 µg/mL (≈ 0.47 to 1.88 µM)	400 µg/mL (≈ 752 µM)	400 to 800 µg/mL (≈ 752 to 1500 µM)	≥ 800 µg/mL	> 800 µg/mL	0.25 to 1 µg/mL (≈ 0.47 to 1.88 µM)					
CCNC(=O)Nc1nc2cc(-c3cnc(N4CCC(C)(C(=O)O)CC4)nc3)cc(Br)c2s1 [Compound 215]	1 to 16 µg/mL (≈ 1.93 to 30.8 µM)	≤ 0.25 µg/mL	400 µg/mL (≈ 770 µM)	400 to 800 µg/mL (≈ 770 to 1540 µM)	≥ 800 µg/mL	> 800 µg/mL	0.25 to 1 µg/mL (≈ 0.481 to 1.93 µM)					
CCNC(=O)Nc1nc2cc(-c3cnc(NC4COC(C)(C(=O)OCC)OC4)nc3)cc(-c3ccccn3)c2s1 (stereo not shown) [Compound 216]	1 to 16 µg/mL (≈ 1.77 to 28.4 µM)	≤ 0.25 µg/mL	25 µg/mL (≈ 44.4 µM)	12.5 to 400 µg/mL (≈ 22.2 to 710 µM)			1 to 16 µg/mL (≈ 1.77 to 28.4 µM)				50 µg/mL (≈ 88.7 µM)	12.5 to 400 µg/mL (≈ 22.2 to 710 µM)
CCNC(=O)Nc1nc2cc(-c3cnc(N4CCC(C)(C(=O)O)CC4)nc3)cc(-c3ccc(CN4CCC(F)(F)CC4)cn3)c2s1 [Compound 217]	1 to 16 µg/mL (≈ 1.54 to 24.6 µM)	≤ 0.25 µg/mL	400 µg/mL (≈ 615 µM)	400 to 800 µg/mL (≈ 615 to 1230 µM)	≥ 800 µg/mL	> 800 µg/mL	0.25 to 1 µg/mL (≈ 0.384 to 1.54 µM)					
CCNC(=O)Nc1nc2cc(-c3cnc(N(C)C4CCC(C)(C(=O)O)CC4)nc3)cc(-c3ccccn3)c2s1 (stereo not shown) [Compound 218]	1 to 16 µg/mL (≈ 1.83 to 29.3 µM)	≤ 0.25 µg/mL	200 µg/mL (≈ 367 µM)	12.5 to 400 µg/mL (≈ 22.9 to 733 µM)	≥ 800 µg/mL	> 800 µg/mL	≤ 0.25 µg/mL					
CCNC(=O)Nc1nc2cc(-c3cnc(N4CCC5(CC4)CC(CC)(C(=O)O)C5)nc3)cc(-c3ccccn3)c2s1 [Compound 219]	1 to 16 µg/mL (≈ 1.75 to 28 µM)	≤ 0.25 µg/mL	≥ 800 µg/mL	> 800 µg/mL			0.25 to 1 µg/mL (≈ 0.437 to 1.75 µM)	≥ 800 µg/mL	> 800 µg/mL			
CCNC(=O)Nc1nc2cc(-c3cnc(N4CCC(C)(C(=O)O)CC4)nc3OC)cc(-c3ccccn3)c2s1 [Compound 220]	1 to 16 µg/mL (≈ 1.83 to 29.2 µM)	≤ 0.25 µg/mL	50 µg/mL (≈ 91.3 µM)	12.5 to 400 µg/mL (≈ 22.8 to 730 µM)	400 µg/mL (≈ 730 µM)	400 to 800 µg/mL (≈ 730 to 1460 µM)	≤ 0.25 µg/mL					
CCNC(=O)Nc1nc2cc(-c3cnc(N4CCC(CC)(C(=O)O)CC4)s3)cc(-c3ccccn3)c2s1 [Compound 221, 4-Ethyl-1-[5-[2-(ethylcarbamoylamino)-7-(2-pyridyl)-1,3-benzothiazol-5-yl]thiazol-2-yl]piperidine-4-carboxylic acid]	1 to 16 µg/mL (≈ 1.86 to 29.8 µM)	≤ 0.25 µg/mL	≥ 800 µg/mL	> 800 µg/mL			≤ 0.25 µg/mL	≥ 800 µg/mL	> 800 µg/mL			
CCNC(=O)Nc1nc2cc(-c3cnc(NC4CCC(C)(C(=O)O)CC4)nc3)cc(-c3ccccn3)c2s1 (stereo not shown) [Compound 222]	0.25 to 1 µg/mL (≈ 0.47 to 1.88 µM)	≤ 0.25 µg/mL	≥ 800 µg/mL	> 800 µg/mL			≤ 0.25 µg/mL	≥ 800 µg/mL	> 800 µg/mL			

From patent US9181234B2, “Antibacterial compounds” (priority 2010, dated 2015)
